Data as given in PubChem BioAssay AID1963858 (Molecular Pharmacology Branch, DTP, NCI, 2024).
Calls of active or inactive are those of the source. The calls were made as follows: active = viability on the fitted dose curve at most 10% of control; inactive = the rest.

Tested on: HOP-62 multicell spheroids with HUVEC/MSC, viability
Test: Anticancer human tumor HOP-62 cell line growth inhibition [KRAS2];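 as to IC50: viability read after a week of compound exposure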;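 as to viability, T/C: viability read after a week of compound exposure; 100% = DMSO vehicle-treated spheroids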
Settings: for IC50: curve of first compound; for viability, T/C: stronger effect = lower value
Procedure, shortened: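 Combination screen of spheroid viability in tumor-cell co-cultures with endothelial (HUVEC) and mesenchymal stem cell stroma. Each agent was tested in half-log dilutions, topping at clinical Cmax or at 10 microM without a known Cmax.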

[1] = second compound 0.1 µM, first compound 0.0316 µM
[2] = second compound 0.1 µM, first compound 0.1 µM
[3] = second compound 0.316 µM, first compound 0.0316 µM
[4] = second compound 0.316 µM, first compound 0.1 µM
[5] = second compound 1 µM, first compound 0.0316 µM
[6] = second compound 1 µM, first compound 0.1 µM
[7] = second compound 3.16 µM, first compound 0.0316 µM
[8] = second compound 3.16 µM, first compound 0.1 µM
[9] = second compound 10 µM, first compound 0.0316 µM
[10] = second compound 10 µM, first compound 0.1 µM

CN(C)C/C=C/C(=O)Nc1cc2c(Nc3ccc(F)c(Cl)c3)ncnc2cc1O[C@H]1CCOC1 + CC1OCC2(CCN(c3cnc(Sc4ccnc(N)c4Cl)c(N)n3)CC2)C1N
< 0.316 nM: IC50 (second compound 10 µM)
inactive: viability, T/C (second compound 0.1 µM, first compound 0.000316 µM) 112% | viability, T/C (second compound 0.1 µM, first compound 0.001 µM) 109% | viability, T/C (second compound 0.1 µM, first compound 0.00316 µM) 103% | viability, T/C (second compound 0.1 µM, first compound 0.01 µM) 95.4% | viability, T/C [1] 102% | viability, T/C [2] 91.3% | viability, T/C (second compound 0.316 µM, first compound 0.000316 µM) 97.6% | viability, T/C (second compound 0.316 µM, first compound 0.001 µM) 93.9% | viability, T/C (second compound 0.316 µM, first compound 0.00316 µM) 104% | viability, T/C (second compound 0.316 µM, first compound 0.01 µM) 86.2% | viability, T/C [3] 90.9% | viability, T/C [4] 79.2% | viability, T/C (second compound 1 µM, first compound 0.000316 µM) 110% | viability, T/C (second compound 1 µM, first compound 0.001 µM) 106% | viability, T/C (second compound 1 µM, first compound 0.00316 µM) 107% | viability, T/C (second compound 1 µM, first compound 0.01 µM) 102% | viability, T/C [5] 105% | viability, T/C [6] 104% | viability, T/C (second compound 3.16 µM, first compound 0.000316 µM) 60.8% | viability, T/C (second compound 3.16 µM, first compound 0.001 µM) 46.2% | viability, T/C (second compound 3.16 µM, first compound 0.00316 µM) 53.3% | viability, T/C (second compound 3.16 µM, first compound 0.01 µM) 53.3% | viability, T/C [7] 56.7% | viability, T/C [8] 47.1% | outcome (second compound 10 µM, first compound 0.000316 µM) | outcome (second compound 10 µM, first compound 0.001 µM) | viability, T/C (second compound 10 µM, first compound 0.00316 µM) 43.6% | outcome (second compound 10 µM, first compound 0.01 µM) | viability, T/C [9] 49.4% | viability, T/C [10] 46.8%
> 100 nM: IC50 (second compound 0.1 µM) | IC50 (second compound 0.316 µM) | IC50 (second compound 1 µM) | IC50 (second compound 3.16 µM)

CC(C)NCC(C(=O)N1CCN(c2ncnc3c2C(C)CC3O)CC1)c1ccc(Cl)cc1 (stereo not given) + C=CC(=O)N1CCN(c2nc(=O)n(-c3c(C)ccnc3C(C)C)c3nc(-c4c(O)cccc4F)c(F)cc23)C(C)C1
inactive: viability, T/C [1] 60.9% | viability, T/C [2] 45.3% | viability, T/C (second compound 0.1 µM, first compound 0.316 µM) 22.2% | viability, T/C (second compound 0.1 µM, first compound 1 µM) 12.4% | viability, T/C [3] 53.8% | viability, T/C [4] 49.1% | viability, T/C (second compound 0.316 µM, first compound 0.316 µM) 28.2% | viability, T/C (second compound 0.316 µM, first compound 1 µM) 12.9% | viability, T/C [5] 57.2% | viability, T/C [6] 49.6% | viability, T/C (second compound 1 µM, first compound 0.316 µM) 27.2% | viability, T/C (second compound 1 µM, first compound 1 µM) 11.8% | viability, T/C [7] 55.7% | viability, T/C [8] 51% | viability, T/C (second compound 3.16 µM, first compound 0.316 µM) 36.3% | viability, T/C (second compound 3.16 µM, first compound 1 µM) 15.1% | viability, T/C [9] 43.3% | viability, T/C [10] 28.1% | viability, T/C (second compound 10 µM, first compound 0.316 µM) 19.5% | viability, T/C (second compound 10 µM, first compound 1 µM) 12.8%
88.9 nM: IC50 (second compound 1 µM)
110 nM: IC50 (second compound 3.16 µM)
69.2 nM: IC50 (second compound 0.1 µM)
70 nM: IC50 (second compound 0.316 µM)
active: viability, T/C (second compound 0.1 µM, first compound 3.16 µM) 7.1% | viability, T/C (second compound 0.1 µM, first compound 10 µM) 5.4% | viability, T/C (second compound 0.316 µM, first compound 3.16 µM) 6.09% | viability, T/C (second compound 0.316 µM, first compound 10 µM) 5.39% | viability, T/C (second compound 1 µM, first compound 3.16 µM) 6.8% | viability, T/C (second compound 1 µM, first compound 10 µM) 5.57% | viability, T/C (second compound 3.16 µM, first compound 3.16 µM) 7.34% | viability, T/C (second compound 3.16 µM, first compound 10 µM) 4.5% | viability, T/C (second compound 10 µM, first compound 3.16 µM) 8.3% | viability, T/C (second compound 10 µM, first compound 10 µM) 5.28%
< 31.6 nM: IC50 (second compound 10 µM)
